# Measurements published in ChEMBL document CHEMBL3044960, “Evaluation of fungicide applications to sweet orange at different flowering stages for control of postbloom fruit drop caused by Colletotrichum acutatum” (2008).
# Active and inactive are the calls of the source. The rule behind the calls is not given here.
# What was measured:
# Colletotrichum acutatum [1] = experiment: Fungicidal activity against Colletotrichum acutatum infested Citrus sinensis assessed as total fruit weight per plant at 0.5 g/l applied through airblast sprayer during open flower stage measured after 70 days (Rvb =49.88 kg); type: functional
# Colletotrichum acutatum [2] = experiment: Fungicidal activity against Colletotrichum acutatum infested Citrus sinensis assessed as reduction in symptomatic flowers at 0.5 g/l applied through airblast sprayer during hollow ball flower stage measured after 7 days; type: functional, organism-based
# Colletotrichum acutatum [3] = experiment: Fungicidal activity against Colletotrichum acutatum infested Citrus sinensis assessed as increase in fruit set at 0.5 g/l applied through airblast sprayer during white bud and hollow ball flower stages measured after 70 days relative to control; type: functional, organism-based
# Colletotrichum acutatum [4] = experiment: Fungicidal activity against Colletotrichum acutatum infested Citrus sinensis assessed as total fruit weight per plant at 0.5 g/l applied through airblast sprayer during green bud and white bud flower stages measured after 70 days (Rvb =65.90 kg); type: functional
# Colletotrichum acutatum [5] = experiment: Fungicidal activity against Colletotrichum acutatum infested Citrus sinensis assessed as total fruit weight per plant at 0.5 g/l applied through airblast sprayer during green bud flower stage measured after 70 days (Rvb =65.90 kg); type: functional
# Colletotrichum acutatum [6] = experiment: Fungicidal activity against Colletotrichum acutatum infested Citrus sinensis assessed as increase in fruit set percentage at 0.5 g/l applied through airblast sprayer during green bud to white ball flower stages measured after 70 days; type: functional, organism-based
# Colletotrichum acutatum [7] = experiment: Fungicidal activity against Colletotrichum acutatum infested Citrus sinensis assessed as reduction in number of symptomatic flowers at 0.5 g/l applied through airblast sprayer during green bud, white bud and hollow ball flower stages measured after 7 days; type: functional, organism-based
# Colletotrichum acutatum [8] = experiment: Fungicidal activity against Colletotrichum acutatum infested Citrus sinensis assessed as increase in fruit set at 0.5 g/l applied through airblast sprayer during white bud flower stage measured after 70 days; type: functional, organism-based
# Colletotrichum acutatum [9] = experiment: Fungicidal activity against Colletotrichum acutatum infested Citrus sinensis assessed as reduction in symptomatic flowers at 0.5 g/l applied through airblast sprayer during green bud and hollow ball flower stages measured after 7 days; type: functional, organism-based
# Colletotrichum acutatum [10] = experiment: Fungicidal activity against Colletotrichum acutatum infested Citrus sinensis assessed as reduction in number of symptomatic flowers at 0.5 g/l applied through airblast sprayer during green bud and white bud flower stages measured after 7 days; type: functional, organism-based
# Colletotrichum acutatum [11] = experiment: Fungicidal activity against Colletotrichum acutatum infested Citrus sinensis assessed as reduction in symptomatic flowers at 0.5 g/l applied through airblast sprayer during open flower stage measured after 7 days; type: functional, organism-based
# Colletotrichum acutatum [12] = experiment: Fungicidal activity against Colletotrichum acutatum infested Citrus sinensis assessed as increase in fruit set at 0.5 g/l applied through airblast sprayer during green bud flower stage measured after 70 days; type: functional, organism-based
# Colletotrichum acutatum [13] = experiment: Fungicidal activity against Colletotrichum acutatum infested Citrus sinensis assessed as increase in fruit production per tree at 0.5 g/l applied through airblast sprayer during green bud to white ball flower stages measured after 70 days; type: functional, organism-based
# Colletotrichum acutatum [14] = experiment: Fungicidal activity against Colletotrichum acutatum infested Citrus sinensis assessed as reduction in symptomatic flowers at 0.5 g/l applied through airblast sprayer during white bud and hollow ball flower stages measured after 7 days; type: functional, organism-based
# Colletotrichum acutatum [15] = experiment: Fungicidal activity against Colletotrichum acutatum infested Citrus sinensis assessed as reduction in number of symptomatic flowers at 0.5 g/l applied through airblast sprayer during green bud until open flower stages measured after 7 days; type: functional, organism-based
# Colletotrichum acutatum [16] = experiment: Fungicidal activity against Colletotrichum acutatum infested Citrus sinensis assessed as total fruit weight per plant at 0.5 g/l applied through airblast sprayer during hollow ball flower stage measured after 70 days (Rvb =49.88 kg); type: functional
# Colletotrichum acutatum [17] = experiment: Fungicidal activity against Colletotrichum acutatum infested Citrus sinensis assessed as total fruit weight per plant at 0.5 g/l applied through airblast sprayer during white bud and hollow ball flower stages measured after 70 days (Rvb =49.88 kg); type: functional
# Colletotrichum acutatum [18] = experiment: Fungicidal activity against Colletotrichum acutatum infested Citrus sinensis assessed as reduction in number of symptomatic flowers at 0.5 g/l applied through airblast sprayer during green bud flower stage measured after 7 days; type: functional, organism-based
# Colletotrichum acutatum [19] = experiment: Fungicidal activity against Colletotrichum acutatum infested Citrus sinensis assessed as total fruit weight per plant at 0.5 g/l applied through airblast sprayer during green bud until open flower stages measured after 70 days (Rvb =65.90 kg); type: functional
# Colletotrichum acutatum [20] = experiment: Fungicidal activity against Colletotrichum acutatum infested Citrus sinensis assessed as increase in fruit production per tree at 0.5 g/l applied through airblast sprayer during green bud to white ball flower stages measured after 70 days in presence of KNO3; type: functional, organism-based
# Colletotrichum acutatum [21] = experiment: Fungicidal activity against Colletotrichum acutatum infested Citrus sinensis assessed as increase in fruit set percentage at 0.5 g/l applied through airblast sprayer during green bud to white ball flower stages measured after 70 days in presence of KNO3; type: functional, organism-based
# Colletotrichum acutatum [22] = experiment: Fungicidal activity against Colletotrichum acutatum infested Citrus sinensis assessed as total fruit weight per plant at 0.5 g/l applied through airblast sprayer during green bud and hollow ball flower stages measured after 70 days (Rvb =49.88 kg); type: functional
# Colletotrichum acutatum [23] = experiment: Fungicidal activity against Colletotrichum acutatum infested Citrus sinensis assessed as increase in fruit set at 0.5 g/l applied through airblast sprayer during open flower stage measured after 70 days; type: functional, organism-based
# Colletotrichum acutatum [24] = experiment: Fungicidal activity against Colletotrichum acutatum infested Citrus sinensis assessed as reduction in persistant calyces at 0.5 g/l applied through airblast sprayer during green bud to white ball flower stages measured after 7 days; type: functional, organism-based
# Colletotrichum acutatum [25] = experiment: Fungicidal activity against Colletotrichum acutatum infested Citrus sinensis assessed as total fruit weight per plant at 0.5 g/l applied through airblast sprayer during green bud, white bud and hollow ball flower stages measured after 70 days (Rvb =65.90 kg); type: functional
smiles,measurement,setting,value
COC(=O)Nc1nc2ccccc2[nH]1 [CARBENDAZIM],Activity,Colletotrichum acutatum [1],59 kg
same,Activity,Colletotrichum acutatum [2],Active
same,Activity,Colletotrichum acutatum [3],Active
same,Activity,Colletotrichum acutatum [4],67.9 kg
same,Activity,Colletotrichum acutatum [5],53.7 kg
same,Activity,Colletotrichum acutatum [6],Active
same,Activity,Colletotrichum acutatum [7],Active
same,Activity,Colletotrichum acutatum [8],Active
same,Activity,Colletotrichum acutatum [9],Active
same,Activity,Colletotrichum acutatum [10],Active
same,Activity,Colletotrichum acutatum [11],inactive
same,Activity,Colletotrichum acutatum [12],Active
same,Activity,Colletotrichum acutatum [13],Active
same,Activity,Colletotrichum acutatum [14],Active
same,Activity,Colletotrichum acutatum [15],Active
same,Activity,Colletotrichum acutatum [16],57 kg
same,Activity,Colletotrichum acutatum [17],63.5 kg
same,Activity,Colletotrichum acutatum [18],Active
same,Activity,Colletotrichum acutatum [19],114.9 kg
same,Activity,Colletotrichum acutatum [20],Active
same,Activity,Colletotrichum acutatum [21],Active
same,Activity,Colletotrichum acutatum [22],73.8 kg
same,Activity,Colletotrichum acutatum [23],inactive
same,Activity,Colletotrichum acutatum [24],Active
same,Activity,Colletotrichum acutatum [25],102.4 kg
